Tests used:
[1] = target: T1, SASPase-FLG2 interaction (Homo sapiens, UniProt Q53RT3, D212A); experiment: HTRF (FRET) screening of agents that modulate the SASPase-FLG2 interaction; format: binding; conditions: SASPase85-343D212A-GST 50 nM, FLG22-213-S-His-THX 200 nM, PBS pH 7.4; read-out: IC50, inhibition of the SASPase-FLG2 interaction
T1 construct: made in house; host or cells: E. coli BL21DE3
T1 sequence (Q53RT3 85-343 D212A): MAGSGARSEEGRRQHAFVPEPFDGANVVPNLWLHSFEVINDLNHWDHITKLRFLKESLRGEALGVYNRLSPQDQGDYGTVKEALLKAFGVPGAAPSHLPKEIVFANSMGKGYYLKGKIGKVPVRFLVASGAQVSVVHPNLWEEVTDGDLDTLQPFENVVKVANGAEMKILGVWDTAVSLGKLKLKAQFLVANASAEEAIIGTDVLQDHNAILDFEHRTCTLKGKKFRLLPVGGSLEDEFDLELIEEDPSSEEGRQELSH
Protocol: The process developed is based on the FLG2-SASPase interaction and uses the homogeneous time-resolved fluorescence (or HTRF) technique.
A recombinant SASPase protein (comprising the amino acid sequence 85-343 of Q53RT3) mutated at its active site (D212A of Q53RT3) and fused with the GST (glutathione S-transferase from Schistosoma japonicum) affinity marker, at its C-terminal end, was prepared in the vector pGEX-4-T3 (GenBank U13855) (SASPase85-343D212A-GST). The D212A mutation was introduced to inactivate the SASPase and to promote a stable interaction with FLG2. […]
Antibodies recognizing, respectively, the affinity markers GST or His-S.Tag, and bearing, respectively, an EuK fluorescence donor group (europium cryptate λex 337 nm/λem 620 nm) or an XL1665 fluorescence receiver group (λex 570-630 nm/λem 665 nm) are used to monitor the peptide-SASPase interaction.
The SASPase-FLG2 interaction was observed by fluorescence energy transfer (FRET) between the fluorescent markers Euk and XL1665. The Euk fluorescence donor was excited at λex 337 nm and the fluorescence emission of the XL1665 fluorescence acceptor was measured at λem 665 nm.
The Euk fluorescence emission at λem 620 nm, taking place independently of the interaction between SASPase and FLG2, was used to normalize the signal. Thus, for each point, a ratio λem 665/λem 620 is determined. […]

[2] = tested on: reconstructed human epidermis Episkin J6; experiment: Western blotting of differentiation markers in Episkin reconstructed epidermis; format: cell-based; conditions: Episkin epidermis cultured in the presence of M7 (10 μM, 1 μM, 0.5 μM)
Protocol: (§1) A model of reconstructed human epidermis Episkin J6 (reference 09-EPIS-015) was cultured by immersion in Episkin differentiation medium, 3.5 ml under insert in an oven at 37° C., 5% CO2, the medium being changed every 2 days.
(§2) The compound “M7” was tested at concentrations of 10 μM, 1 μM and 0.5 μM by incubation of the epidermal model with a differentiation culture medium supplied by EpiSkin®, comprising the compound at the test concentration or a buffer solution as control (DMSO at 0.1% final).
(§3) The effect of the compound “M7” on the differentiation and/or proliferation of epidermal cells is evaluated by measuring the thickness of the stratum corneum, and measurement of the expression and/or activation of transglutaminase I (TGI), caspase 14, SASPase, corneodesmosin, desmoglein 1 or protein Ki67.
The activation, expression and maturation of TGI, filaggrin, caspase 14, SASPase, corneodesmosin and desmoglein 1 were determined by western blotting.
For the western blotting, the soluble proteins, TGI, caspase 14, corneodesmosin and SASPase were extracted from two Episkin® nacelles with a manual potter in 1 ml of “native +” buffer (TBS, 1M NaCl, 0.1% Tween 20). The extract is centrifuged at 14 000 rpm, at 4° C. for 10 minutes. The supernatant obtained is filtered through a 0.45 μm Millipore filter (millex) and the proteins are then quantified by the BCA method (Pierce). The protein concentrations are equilibrated to 625 μg/ml final.
The extracts are deposited on a 10-20% Criterion gel (ref.: 345-0044 Bio-Rad) according to the supplier's protocol, and are then transferred onto a PVDF membrane via the semi-dry method.
The western blotting immunochemical detection is performed according to a standard protocol carried out with primary antibodies specific for the target and secondary antibodies coupled to HRP. Revelation is performed with the kits ECL; ECL plus; ECL advanced (Amersham) according to the necessary sensitivity and according to the supplier's protocol. The photon imaging apparatus used is the Fluor S Multilmager (Bio-Rad).
For TGI, primary antibody: Covalab pab 0061 at 1/100 produced in rabbits; secondary antibody: HRP-coupled anti-rabbit antibody at 1/4000: Bio-rad 170-6515
For caspase 14, primary antibody: Santa Cruz sc-5628 at 1/500 produced in rabbits; secondary antibody: HRP-coupled anti-rabbit antibody at 1/400: Bio-rad 170-6515
For corneodesmosin, primary antibody: Abnova 1041-M01 at 1/5000 produced in mice; secondary antibody: HRP-coupled anti-mouse antibody at 1/4000: Bio-rad 170-6516
For SASPase, primary antibody: Covalab 7H9a105 at 1/2000 produced in mice; secondary antibody: HRP-coupled anti-mouse antibody at 1/4000: Bio-rad 170-6516
For the western blotting of filaggrin and desmoglein 1, these proteins are extracted from the pellet obtained during the extraction of the “soluble” proteins. The pellets are ground with an electric potter in 200 μl of whole Laemmli buffer ([…] Tris; 2% SDS; 200 mM DTT; 10% glycerol) and then heated at 90° C. for 10 minutes and finally centrifuged for 10 minutes at 14 000 rpm at room temperature.
The supernatants obtained are assayed for proteins via the Bradford method (cytoskeleton). The total protein concentrations are equilibrated to 1 mg/ml final. A western blotting protocol identical to the previous one is applied.
For desmoglein 1, primary antibody: Progen 61002 at 1/100 produced in mice; secondary antibody: HRP-coupled anti-mouse antibody at 1/4000: Bio-rad 170-6516

[3] = tested on: reconstructed human epidermis Episkin J6; experiment: Ki67 immunofluorescence on frozen slices of Episkin reconstructed epidermis; format: cell-based; conditions: Episkin epidermis cultured in the presence of M7 (10 μM, 1 μM, 0.5 μM)
Protocol: as §1, §2, §3
The activation, expression and maturation of Ki67 were determined by immunofluorescence on frozen slices.
The immunofluorescence labeling on frozen slices is performed using a standard protocol, with a PBS buffer; 0.2% BSA for the steps of washing and incubation of the primary and secondary antibodies, and with a PBS buffer; 5% BSA for the step for blocking the nonspecific sites.
For the detection of Ki67, primary antibody: Novocastra mm1 at 1/20 produced in mice; secondary antibody: AlexaFLuor A488-coupled anti-mouse antibody at 1/1000 (Molecular Probes A11017). […]

[4] = tested on: reconstructed human epidermis Episkin J6; experiment: Stratum corneum thickness by histological observation on slices of Episkin reconstructed epidermis; format: cell-based; conditions: tested at 10 μM, 1 μM and 0.5 μM; observed at and above the lowest concentration tested
Protocol: as §1, §2, §3
The thickness of the stratum corneum was estimated by histological observation on slices.

[5] = target: T2, recombinant SASPase (28 kDa) (Homo sapiens, UniProt Q53RT3); experiment: Enzymatic activation of SASPase by FLG2 (hydrolysis of fluorescent substrate Dabcyl-QIDRIMEK-Edans); format: biochemical; conditions: for enzymatic activity of the SASPase: increasing concentration of FLG2 form (0.01 to 10 times SASPase 0.025 mg/ml), acetate/acetic acid buffer pH 5.5, 37° C.
T2 construct: made in house
T2 sequence (Q53RT3 85-343): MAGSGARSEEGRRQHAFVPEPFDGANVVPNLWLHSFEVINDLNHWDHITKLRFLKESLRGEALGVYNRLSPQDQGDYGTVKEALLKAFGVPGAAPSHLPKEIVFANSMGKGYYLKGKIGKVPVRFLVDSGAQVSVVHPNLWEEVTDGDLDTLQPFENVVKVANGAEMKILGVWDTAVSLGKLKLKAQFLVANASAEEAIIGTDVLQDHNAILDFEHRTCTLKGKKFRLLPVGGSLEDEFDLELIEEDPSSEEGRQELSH
Protocol: The enzymatic reaction is performed in an acetate/acetic acid buffer. The FIGURE illustrates the mean±sem of an experiment performed in duplicate.
A 28-kDa recombinant SASPase corresponding to the amino acid sequence 85 to 343 of the sequence Q53RT3 (Uniprot/Swissprot ref.) was prepared as described by Bernard et al. (J. Invest. Dermatol., 2005, 125: 278-287) (SASPase85-343).
The SASPase was dissolved in a PBS buffer and used at a final concentration of 0.025 mg/ml in the presence of a final concentration of a colorimetric substrate Dabcyl-QIDRIMEK-Edans of 0.01 mM (Production Jerini Peptide Ref. D17: JPT Peptide Technologies GmbH).
FLG2-Hs and FLG2-AbD are used at concentrations corresponding to 0.01, 0.02, 0.04, 0.08, 0.16, 0.31, 0.63, 1.25, 2.5, 5 or 10 times the final concentration of SASPase, i.e. 0.025 mg/ml.
SASPase and FLG2-Hs, or FLG2-AbD, are incubated at 37° C. in a 0.1 M acetate/acetic acid buffer at pH 5.5 containing 150 mM of NaCl, in the presence of Dabcyl-QIDRIMEK-Edans.
The hydrolysis of the colorimetric substrate by the activated SASPase leads to the separation of the Edans fluorochrome and of its Dabcyl deactivator (or quencher), and to an increase in the fluorescence of Edans.
Measurement of the fluorescent signal is performed at λex 340 nm/[…]. The fluorescence is read every 10 minutes for 1 hour 30 minutes at 37° C., with a Spectramax M5e (Molecular Devices).

Cc1ccc(C(=O)Oc2cccc(C3C4=C(Nc5c3c(=O)n(C)c(=O)n5C)c3ccccc3C4=O)c2)cc1 (centres unmarked) [M7]
IC50 [1]: ~2 µM
expression and activation of SASPase [2]: increase
expression and activation of TGI (transglutaminase I) [2]: increase
expression and activation of caspase 14 [2]: increase
expression and activation of corneodesmosin [2]: increase
expression and activation of desmoglein [2]: increase
activation and expression of the protein Ki67 [3]: decrease
thickness of the stratum corneum [4]: thickening

B1: FLG2-Hs: recombinant filaggrin-2, amino acids 2-213 of Q5D862, fused N-terminally to thioredoxin-His-S.Tag; active form (protein, UniProt Q5D862 2-213, looked up, fragment)
chain: TDLLRSVVTVIDVFYKYTKQDGECGTLSKGELKELLEKELHPVLKNPDDPDTVDVIMHMLDRDHDRRLDFTEFLLMIFKLTMACNKVLSKEYCKASGSKKHRRGHRHQEEESETEEDEEDTPGHKSGYRHSSWSEGEEHGYSSGHSRGTVKCRHGSNSRRLGRQGNLSSSGNQEGSQKRYHRSSCGHSWSGGKDRHGSSSVELRERINKSHI
modifications: N-terminal thioredoxin-His-S.Tag fusion
FLG2 concentration at and above which activation of SASPase proteolytic activity is obtained ([5]; SASPase 0.025 mg/ml): equivalent to that of the SASPase
enzymatic activity of the SASPase [5]: significantly increased

B2: FLG2-AbD: recombinant filaggrin-2, amino acids 81-212 of Q5D862, fused N-terminally to thioredoxin-His-S.Tag; inactive form (protein, UniProt Q5D862 81-212, looked up, fragment)
chain: LTMACNKVLSKEYCKASGSKKHRRGHRHQEEESETEEDEEDTPGHKSGYRHSSWSEGEEHGYSSGHSRGTVKCRHGSNSRRLGRQGNLSSSGNQEGSQKRYHRSSCGHSWSGGKDRHGSSSVELRERINKSH
modifications: N-terminal thioredoxin-His-S.Tag fusion
enzymatic activity of the SASPase [5]: virtually unchanged
